Assay results as given in patent US8669289B2, “Methods and compositions relating to hematologic malignancies” (The Jackson Laboratory, priority 2009, dated 2014).
Entries after “also recorded” stand apart in the source; their conditions may differ.

Legend:
Alox5 gene = assay: Gene expression in LSCs of CML mice with imatinib treatment (DNA microarray, RT-PCR); type: in vivo; conditions: imatinib 150 mg/kg every 4 hours, 5 doses from day 13 post BMT
Excerpt: (§1) Leukemic stem cells in CML (CML-SCs) are insensitive to BCR-ABL kinase inhibitors (Graham et al., 2002). A bone marrow transplantation (BMT) mouse model of CML is used as an assay system, in which bone marrow cells from donor mice pretreated with 5-fluorouracil (5-FU) and transduced with BCR-ABL result in development of CML in recipient mice (Li et al., 1999). Bone marrow cells from C57BL/6 (B6) mice are transduced with retrovirus containing BCR-ABL/GFP or GFP alone under conditions for induction of CML, followed by transplantation of the transduced cells into B6 recipient mice.
Fourteen days after BMT, bone marrow cells are isolated and subsequently sorted by FACS for LSCs (GFP^+Lin^−c-Kit^+Sca-1^+) (Hu et al., 2006). Total RNA is isolated from these BCR-ABL-expressing LSCs or from the GFP^+Lin^−c-Kit^+Sca-1^+ cells that only express GFP, and DNA microarray analysis is carried out to compare gene expression between BCR-ABL-expressing and non-BCR-ABL expressing Lin^−c-Kit^+Sca-1^+ cells.

[1] = tested on: leukemia stem cells (CD34+CD38-); assay: Human CML CD34+CD38- cells in patient bone marrow culture, FACS; type: cell-based; conditions: 48 h, untreated 1.4%
Method: Bone marrow was isolated from a CML patient. The cells were cultured in serum-free media (SFM: Iscove modified Dulbecco medium (Sigma-Aldrich) supplemented with a serum substitute bovine serum albumin[…][…], BIT9500 from […] Technologies), five growth factors (5GF: cocktail of 20 ng/mL recombinant human IL-3 (rhIL-3), 20 ng/mL rhIL-6, 100 ng/mL rhFlt3-ligand, 100 ng/mL rh stem cell factor, available from […] Technologies)) and zileuton at two doses, 300 μM or 600 μM, for 48 hours. The cells were analyzed by FACS and the percentages of leukemia stem cells (CD34+CD38-) were determined using anti CD34 and anti CD38 antibodies.

[2] = tested on: mice with CML induced by BCR-ABL-T315I; assay: Survival of mice with CML induced by BCR-ABL-T315I; type: in vivo; conditions: zileuton n=11 vs placebo n=6
[3] = tested on: mice with BCR-ABL-induced CML; assay: Leukemia cell infiltration to lungs and spleens of CML mice; type: in vivo; conditions: zileuton-treated CML mice
LSCs = assay: FACS of LT-LSCs and ST-LSCs/MPP cells in bone marrow of zileuton-treated CML mice; type: in vivo; conditions: 300 mg/kg twice a day from day 8; days 20 and 90 post BMT
Method: Cell populations affected by Alox5 deficiency are determined using FACS analysis. BCR-ABL-transduced Alox5^−/− bone marrow cells are transplanted into recipient mice (n=4) to induce CML, and bone marrow cells from these mice are analyzed by FACS for percentages of total HSCs (Lin^−c-Kit^+Sca-1^+), LT-HSCs (Lin^−c-Kit^+Sca-1^+CD34^−), and ST-HSCs/MPP cells (Lin^−c-Kit^+Sca-1^+CD34^+).
Recipients of BCR-ABL-transduced wild type bone marrow cells are treated with zileuton (300 mg/kg of body weight, twice a day) beginning at 8 days after BMT. […] At days 20 and 90 post BMT (induction of CML), FACS analysis is performed.

[4] = tested on: GFP+Gr-1+ myeloid leukemia cells; assay: FACS of GFP+Gr-1+ myeloid leukemia cells in peripheral blood and bone marrow of treated CML mice; type: in vivo
Excerpt: as §1
(§2) Water is used as placebo.

[5] = tested on: K562 myeloid leukemia cells; assay: K562 cell proliferation, trypan blue live cell count; type: cell-based, human
Method: The cells are treated with curcumin at 5 different concentrations (20 μM; 40 μM; 60 μM; 80 μM; 100 μM) for 48, 72 and 96 hours. The cells are stained with trypan blue and counted. The total cell number of live cells is shown in the graph in FIG. 27. […] K562 is a human Bcr-Abl positive CML cell line, which was isolated from a CML patient in blast crisis (Koeffler, H. P., and Golde, D. W. 1980. Human myeloid leukemia cell lines: a review. […] This cell line is commonly used for screening compounds to detect anti-proliferative activities of leukemia cells and for the pharmacology and toxicology studies required for IND (Investigational New Drug) application. […] The cells are treated with zileuton at 7 different concentrations (10 μ[…]) for 48, and 72 hours. The cells are stained with trypan blue and counted. The total cell number of live cells following these treatments is shown in the graph in FIG. 28.

white blood cells = assay: Peripheral white blood cell counts of CML mice; type: in vivo; conditions: 14 days after bone marrow transplantation
Excerpt: as §2
The white blood cells are collected from the CML induced mice 14 days after bone marrow transplantation.

Alox5 = biological target: T1, Alox5 (Mus musculus, UniProt P48999); assay: Plasma level of LTB4 in CML mice; conditions: compared to placebo-treated CML mice
T1 sequence (P48999 1-674): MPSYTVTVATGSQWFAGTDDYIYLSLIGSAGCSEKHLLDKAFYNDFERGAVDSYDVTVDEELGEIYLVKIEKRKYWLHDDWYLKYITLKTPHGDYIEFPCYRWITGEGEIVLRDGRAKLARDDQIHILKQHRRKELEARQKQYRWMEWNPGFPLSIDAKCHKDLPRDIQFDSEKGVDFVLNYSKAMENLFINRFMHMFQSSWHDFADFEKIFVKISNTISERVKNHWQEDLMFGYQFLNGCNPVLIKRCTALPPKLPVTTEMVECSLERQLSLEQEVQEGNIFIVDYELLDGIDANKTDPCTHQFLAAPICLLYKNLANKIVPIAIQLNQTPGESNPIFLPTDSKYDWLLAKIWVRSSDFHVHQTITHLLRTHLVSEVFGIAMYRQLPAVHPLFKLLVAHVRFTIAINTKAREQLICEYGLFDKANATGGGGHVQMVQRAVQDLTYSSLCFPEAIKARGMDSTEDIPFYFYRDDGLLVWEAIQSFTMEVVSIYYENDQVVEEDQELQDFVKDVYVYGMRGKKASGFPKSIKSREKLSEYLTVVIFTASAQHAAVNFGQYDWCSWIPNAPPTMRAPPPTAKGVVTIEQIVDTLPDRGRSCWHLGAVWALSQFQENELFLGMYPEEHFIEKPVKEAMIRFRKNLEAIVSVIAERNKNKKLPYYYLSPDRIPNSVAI

normal HSCs = assay: FACS of normal HSCs in zileuton-treated mice; type: in vivo
Method: Recipients of BCR-ABL-transduced wild type bone marrow cells are treated with zileuton (300 mg/kg of body weight, twice a day) beginning at 8 days after BMT. […] At days 20 and 90 post BMT (induction of CML), FACS analysis is performed. […] No suppression of normal HSCs is found in placebo- or zileuton-treated mice receiving wild type donor bone marrow cells transduced with MSCV-IRES-GFP retrovirus.

[6] = tested on: leukemia cells, LSCs, LT-LSC and ST-LSC+MPP; assay: In vitro culture of bone marrow cells of CML mice with curcumin, live cell numbers by FACS; type: cell-based; conditions: 20 μM, 6 days, vs buffer control
Method: Bone marrow cells are isolated from 6- to 10-week-old C57BL/6 (B6) mice induced with BCR-ABL, for example using the retroviral vector MSCV-IRES-eGFP carrying the p210 BCR-ABL cDNA to produce CML mice. Total bone marrow cells were cultured in vitro in the presence of StemSpan serum-free medium (StemCell Technologies, Vancouver, BC) supplemented with 10 μg/mL heparin (Sigma, St Louis, Mo.), 10 ng/mL mouse SCF, 20 ng/mL mouse TPO, 20 ng/mL mouse IGF-2 (all from R&D Systems, Minneapolis, Minn.), and 10 ng/mL human FGF-1 (Invitrogen, Carlsbad, Calif.). Half of the medium was replaced after 3 days with fresh medium. (Peng et al Blood, 15 Jul. 2007, Vol. 110, No. 2, pp. 678-685; Zhang and Lodish Blood, 1 Jun. 2005, Vol. 105, No. 11, pp. 4314-4320; de Haan et al. Dev Cell 2003; 4:241-251). The cells were cultured for 6 days in the presence or absence of the Alox5 inhibitor, curcumin at (1,7-Bis(4-hydroxy-3-methoxyphenyl)-1,6-heptadiene-3,5-dione; Calbiochem cat. no. 239802) a concentration of 20 μM in vitro (5×10^6 cells/6 cm tissue culture plate) at 37° C. in a 5% CO2 tissue culture incubator. […] Total live cell numbers were measured for leukemia cells, leukemia stem cells, long-term LSC (LT-LSC) and short-term LSCs with multipotent progenitor cells (ST-LSC+MPP). […]

With `Cc1ccc(NC(=O)c2ccc(CN3CCN(C)CC3)cc2)cc1Nc1nccc(-c2cccnc2)n1` [Imatinib, 4-[(4-methylpiperazin-1-yl)methyl]-N-[4-methyl-3-[(4-pyridin-3-ylpyrimidin-2-yl)amino]-phenyl]-benzamide] the “Up-regulation of the Alox5 gene by BCR-ABL in LSCs” value (Alox5 gene) was “not abolished; also recorded: not prevented”.

`CC(c1cc2ccccc2s1)N(O)C(N)=O` (stereo not shown) [Zileuton, N-[1-(1-benzothien-2-yl)ethyl]-N-hydroxyurea] was tested, and the “Percentage of leukemia stem cells (CD34+CD38-)” value ([1]; 300 μM) was 1.1%, the “Percentage of leukemia stem cells (CD34+CD38-)” value ([1]; 600 μM) was 0.9% and the “Survival of mice with CML induced by BCR-ABL-T315I” value [2] was “prolongs survival”. The “Leukemia cell infiltration to the lungs and the spleens” value [3] was “less severe leukemia cell infiltration”, the “Ratio of percentage of LT-LSCs to percentage of ST-LSCs/MPP cells” value (LSCs) was “increased with treatment” and the “Percentage of GFP+Gr-1+ myeloid leukemia cells in the peripheral blood of CML mice” value (from here on “Percentage … of CML mice”) ([4]; Day 11) was 48.3%. For the same compound, the “Percentage … of CML mice” value ([4]; Day 14) was 49.9%, the “Percentage … of CML mice” value ([4]; Day 21) was 62.9% and the “Percentage … of CML mice” value ([4]; Day 28) was 61.4%. The “Percentage … of CML mice” value ([4]; Day 35) was 39.7%, the “Percentage … of CML mice” value ([4]; Day 42) was 29.4% and the “Percentage … of CML mice” value ([4]; Day 60) was 5.1%. The “GFP+Gr-1+ myeloid leukemia cells in bone marrow” value ([4]; bone marrow, during the treatment) was “drop to low levels”, the “GFP+Gr-1+ cells in peripheral blood over time” value ([4]; from 11 days to 8 weeks) was “gradually decrease with time” and the “Number of live K562 cells” value ([5]; 10-400 μM, 48 hours) was “reduces the number of live cells in the 200 μM and 400 μM groups”. The “Number of live K562 cells” value ([5]; 10-400 μM, 72 hours) was “shows an effect at all concentrations”, the “White blood cell counts” value (white blood cells) was “reduction of white blood cell counts less dramatically than does imatinib treatment” and the “Plasma level of LTB4” value (Alox5) was “decreased”. For the same compound, the “Plasma level of LTB4” value (Alox5; listed as zileuton) was “reduction”, the “Differentiation of GFP- LT-HSCs in the same animals” value (normal HSCs; CML mice, 300 mg/kg twice a day) was “did not lead to blocked differentiation” and the “Numbers of GFP+Lin-c-Kit+Sca-1+ cells in bone marrow or spleens” value (normal HSCs; mice receiving MSCV-IRES-GFP-transduced wild type bone marrow, day 14 after BMT) was “does not result in a reduction”.

In the case of `COc1cc(C=CC(=O)CC(=O)C=Cc2ccc(O)c(OC)c2)ccc1O` [Curcumin, 1,7-Bis(4-hydroxy-3-methoxyphenyl)-1,6-heptadiene-3,5-dione], the “Number of live K562 cells” value ([5]; 20-100 μM, 72 or 96 hours) is reported as “reduces the number of live cells in all groups”, the “Concentration at which an effect on live K562 cell number is shown” value ([5]; 48 hours) is reported as ≥ 40 µM and the “Total live cell number of leukemia cells, LSCs, LT-LSC and ST-LSC+MPP” value [6] is reported as “reduced”.
